Key:
HCT116-MTAP-KO = assay: Compounds cell killing in HCT116 isogenic pair (Cell Titer-Glo viability), MTAP-KO cells; type: cell-based; details: Homo sapiens, HCT-116, 144 h, 6 days, 0-10 μM compound, * = more than 50% viability inhibition at tested concentration without a full curve
Source text: (§1) HCT116 cell line was obtained from ATCC (CCL-247). It has a mutation in codon 13 of the ras proto-oncogene and can be used as a positive control for PCR assays of mutation in this codon. HCT116-MTAP-KO was knocked-out-MTAP-gene based HCT116, and one single clone was passed for this assay. HCT116-mock-RNA-KO was knocked-out-mock-gene based HCT116 with MTAP wildtype genotype. The base medium for HCT116 isogenic pair is RPMI 1640, HEPES (Gibco, 22400105). To make the complete growth medium, add the following components to the base medium: fetal bovine serum to a final concentration of 10% (Gibco, 10099-141C). The cell line was grown in a humidified 5% CO2 atmosphere at 37° C. and regularly tested for the presence of mycoplasma with MycoAlert™ PLUS Mycoplasma Detection Kit (Lonza, LT07-710).
(§2) • Seed HCT116-mock-RNA-KO (400/well) or HCT116-MTAP-KO (400/well) cells into a 96-well plate (Greiner: 655090), 100 μL/well. • Incubate at 37° C., 5% CO2, overnight. • Add 50 μL fresh growth-medium containing serial dilution of compounds for a final compound concentration of 0-10 μM to each well. • Incubate at 37° C., 5% CO2, 6 days. • The cell viability detected by Cell Titer-Glo (Promega, G7573). Add 70 μL of CellTiter-Glo® reagent in each well. • Incubate at room temperature for 10 minutes to stabilize luminescent signal. • Analyze with Microplate Reader (TECAN, SPARK) and fit IC50 using Prism® 9.

HCT116-mock-RNA-KO = assay: Compounds cell killing in HCT116 isogenic pair (Cell Titer-Glo viability), mock-RNA-KO cells (MTAP wildtype); type: cell-based; details: Homo sapiens, HCT-116, 144 h, 6 days, 0-10 μM compound
Source text: as §1, §2

Structure (SMILES): Cc1cc2[nH]c(C(=O)N(Cc3ccc(-c4c(F)cccc4F)cn3)CC3CC3)cc2nc1N [Example B5, 5-amino-N-(cyclopropylmethyl)-N-((5-(2,6-difluorophenyl)pyridin-2-yl)methyl)-6-methyl-1H-pyrrolo[3,2-b]pyridine-2-carboxamide]
- IC50 (HCT116-MTAP-KO): 606 nM
- IC50 (HCT116-mock-RNA-KO): 3620 nM

Structure (SMILES): CO[C@H]1C[C@H](N(Cc2ccc(-c3ccccc3)cn2)C(=O)c2cc3nc(N)c(C)cc3[nH]2)C1 [Example B6, 5-amino-N-((1r,3r)-3-methoxycyclobutyl)-6-methyl-N-((5-phenylpyridin-2-yl)methyl)-1H-pyrrolo[3,2-b]pyridine-2-carboxamide]
- IC50 (HCT116-MTAP-KO): 1730 nM
- IC50 (HCT116-mock-RNA-KO): > 10000 nM

Structure (SMILES): CO[C@H]1C[C@@H](N(Cc2ccc(-c3ccccc3)cn2)C(=O)c2cc3nc(N)c(C)cc3[nH]2)C1 [Example B7, 5-amino-N-((1s,3s)-3-methoxycyclobutyl)-6-methyl-N-((5-phenylpyridin-2-yl)methyl)-1H-pyrrolo[3,2-b]pyridine-2-carboxamide]
- IC50 (HCT116-MTAP-KO): 2050 nM
- IC50 (HCT116-mock-RNA-KO): > 10000 nM

Structure (SMILES): Cc1cc2[nH]c(C(=O)N(Cc3ccc(-c4ccccc4)cn3)C3CCCOC3)cc2nc1N (centres unmarked) [Example B8, 5-amino-6-methyl-N-((5-phenylpyridin-2-yl)methyl)-N-(tetrahydro-2H-pyran-3-yl)-1H-pyrrolo[3,2-b]pyridine-2-carboxamide]
- IC50 (HCT116-MTAP-KO): 1350 nM
- IC50 (HCT116-mock-RNA-KO): > 10000 nM
